Experimental findings from ChEMBL document CHEMBL1201862, “PubChem BioAssay data set” (2004) are described below.

Test [1] concerns H9c2. As to the kind of experiment: cells. The test is classed as functional, cell-based. To be noted: Rattus norvegicus, H9c2, Myocardium.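 Further: confirmatory concentration-response retest of ultra-high-throughput screening hits for modulation of myocardial damage; cell death induced by hydrogen peroxide oxidative stress; compound pretreatment for 60 min then peroxide exposure for 2 h; potency is for protecting the cells against peroxide damage rather than for killing them.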
Test [2] has as its target T1, RNA-binding protein pos-1 (Caenorhabditis elegans, UniProt G5EF15).
T1 sequence (G5EF15 whole entry): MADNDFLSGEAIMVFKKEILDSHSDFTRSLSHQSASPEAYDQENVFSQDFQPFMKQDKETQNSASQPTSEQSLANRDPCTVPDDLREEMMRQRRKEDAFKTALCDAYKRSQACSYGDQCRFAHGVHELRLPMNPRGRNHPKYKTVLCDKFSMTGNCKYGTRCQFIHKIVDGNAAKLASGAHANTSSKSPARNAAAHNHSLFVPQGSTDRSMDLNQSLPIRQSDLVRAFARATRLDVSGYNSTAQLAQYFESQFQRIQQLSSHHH
As to the kind of experiment: disruptors of C. elegans POS-1 RNA interaction – biochemical, fluorescence polarization, dose response (AID 1964).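 Further: purified POS-1 fused to maltose binding protein made in E. coli; potency of compounds blocking POS-1 binding to fluorescent RNA.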 In general terms: Fluorescence polarisation rises when a labelled molecule tumbles more slowly, as on binding a larger partner.

For test [3], the target named is T2, Zinc finger protein mex-5 (Caenorhabditis elegans, UniProt Q9XUB2).
T2 sequence (Q9XUB2 whole entry): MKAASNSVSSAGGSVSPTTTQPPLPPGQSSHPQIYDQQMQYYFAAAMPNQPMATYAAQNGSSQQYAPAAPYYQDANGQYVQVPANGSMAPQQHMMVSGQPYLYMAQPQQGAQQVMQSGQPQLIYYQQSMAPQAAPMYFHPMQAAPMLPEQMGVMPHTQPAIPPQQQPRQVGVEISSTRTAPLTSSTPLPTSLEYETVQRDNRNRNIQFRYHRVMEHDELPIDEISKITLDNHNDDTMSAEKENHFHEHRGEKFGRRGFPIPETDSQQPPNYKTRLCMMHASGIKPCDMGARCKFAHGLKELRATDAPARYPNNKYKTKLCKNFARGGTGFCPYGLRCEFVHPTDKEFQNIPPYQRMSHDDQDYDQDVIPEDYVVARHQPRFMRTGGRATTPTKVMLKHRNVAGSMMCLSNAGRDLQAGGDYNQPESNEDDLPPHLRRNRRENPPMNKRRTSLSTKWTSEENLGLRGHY
The test can be described thus: potency of MEX-5 RNA-binding blockers – biochemical, C. elegans, fluorescence polarization, dose response (AID 1960).

Test [4] addresses T3, Calpain-2 catalytic subunit (Sus scrofa, UniProt P43367).
T3 sequence (P43367 whole entry): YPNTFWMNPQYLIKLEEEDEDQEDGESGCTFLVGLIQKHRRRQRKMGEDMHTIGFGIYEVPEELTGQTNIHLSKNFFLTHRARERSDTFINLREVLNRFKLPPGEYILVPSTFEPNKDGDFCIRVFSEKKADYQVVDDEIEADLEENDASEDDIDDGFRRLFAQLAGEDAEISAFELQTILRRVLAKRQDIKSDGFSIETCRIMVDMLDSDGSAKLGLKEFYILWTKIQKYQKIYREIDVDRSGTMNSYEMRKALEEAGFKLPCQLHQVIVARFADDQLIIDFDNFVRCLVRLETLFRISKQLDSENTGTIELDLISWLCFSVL
As to the kind of experiment: m-calpain protease blockers, concentration series – biochemical, fluorogenic peptide substrate, dose response (AID 1420). The class given is functional.

The target in test [5] is T4, Corticotropin-releasing factor receptor 2/Corticotropin-releasing factor-binding protein (Homo sapiens, UniProt P24387+Q13324).
T4 sequence (Q13324 whole entry): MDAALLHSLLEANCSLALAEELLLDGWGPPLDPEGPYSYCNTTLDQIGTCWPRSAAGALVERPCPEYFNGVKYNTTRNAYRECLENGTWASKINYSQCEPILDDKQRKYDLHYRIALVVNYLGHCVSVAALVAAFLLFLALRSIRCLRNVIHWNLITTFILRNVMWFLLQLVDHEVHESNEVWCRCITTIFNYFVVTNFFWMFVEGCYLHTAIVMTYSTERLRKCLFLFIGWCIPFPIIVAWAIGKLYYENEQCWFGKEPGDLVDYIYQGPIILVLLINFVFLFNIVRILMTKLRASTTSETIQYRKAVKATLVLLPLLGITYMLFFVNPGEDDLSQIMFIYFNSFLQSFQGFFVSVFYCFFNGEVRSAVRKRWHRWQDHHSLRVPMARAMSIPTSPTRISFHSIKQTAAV
T4 sequence (P24387 whole entry): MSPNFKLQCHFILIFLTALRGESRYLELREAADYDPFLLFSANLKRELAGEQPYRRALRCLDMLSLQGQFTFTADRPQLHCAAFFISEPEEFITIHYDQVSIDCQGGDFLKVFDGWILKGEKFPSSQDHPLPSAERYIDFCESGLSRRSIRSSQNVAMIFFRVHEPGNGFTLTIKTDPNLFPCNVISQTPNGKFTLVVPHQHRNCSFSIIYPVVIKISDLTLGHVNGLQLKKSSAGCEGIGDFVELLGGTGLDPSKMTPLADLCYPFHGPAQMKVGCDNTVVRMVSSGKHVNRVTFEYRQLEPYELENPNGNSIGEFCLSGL
As to the kind of experiment: Dose Response confirmation of uHTS hits for small molecule antagonists of the CRF-binding protein and CRF-R2 receptor complex. The test is classed as functional. The conditions noted are these: read-out: IC50_Mean.

Test [6] has as its target T4, Corticotropin-releasing factor receptor 2/Corticotropin-releasing factor-binding protein. As to the kind of experiment: activators of CRF receptor 2 with binding protein – uHTS hits, confirmation (AID 602473). The class given is functional. To be noted: read-out: EC50_Mean.
The target of test [7] is Cytochrome P450 2C9 (Homo sapiens, UniProt P11712).
Cytochrome P450 2C9, sequence (P11712 whole entry): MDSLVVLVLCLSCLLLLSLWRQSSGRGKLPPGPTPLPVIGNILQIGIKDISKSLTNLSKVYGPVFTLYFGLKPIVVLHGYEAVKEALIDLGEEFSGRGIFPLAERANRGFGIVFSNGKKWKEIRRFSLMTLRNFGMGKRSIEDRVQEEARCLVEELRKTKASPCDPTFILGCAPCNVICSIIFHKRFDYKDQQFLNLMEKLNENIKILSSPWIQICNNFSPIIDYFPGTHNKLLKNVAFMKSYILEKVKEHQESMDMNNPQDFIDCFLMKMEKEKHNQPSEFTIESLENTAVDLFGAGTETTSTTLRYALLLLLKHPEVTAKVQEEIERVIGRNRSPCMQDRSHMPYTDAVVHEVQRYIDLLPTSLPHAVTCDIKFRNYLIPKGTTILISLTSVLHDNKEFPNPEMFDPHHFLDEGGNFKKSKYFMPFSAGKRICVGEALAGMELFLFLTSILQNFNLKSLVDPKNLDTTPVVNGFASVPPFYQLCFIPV
The nature of test [8]: Luminescence Cell-Based Dose Confirmation HTS to Identify Activators of 5'UTR Stem-Loop Driven Alpha-Synuclein mRNA Translation in H4 Neuroglioblastoma Cells. [Related pubchem assays: 1829 (Project Summary), 1814 (Primary HTS)]. The class given is functional.
Test [9] in a line: Luminescence Cell-Based Dose Response HTS to Identify Activators of Luciferase Translation or Activity in H4 […] Cells. [Related pubchem assays: 1829 (Project Summary), 1814 (Primary HTS)]. The test is classed as functional.
In test [10] the test system is H4. As to the kind of experiment: Luminescence Cell-Based Dose Response HTS to Identify Activators of 5'UTR Stem-Loop Driven Prion Protein mRNA Translation in H4 Neuroglioblastoma Cells. [Related pubchem assays: 1829 (Project Summary), 1814 (Primary HTS)]. The class given is functional. To be noted: Homo sapiens.

The AC50 is the concentration at which the activity in the assay is half-maximal.

Calls of active or inactive are those of the source. For most assays here, no stated cut-off is given here; in the data, actives have a measured EC50 and inactives only a lower limit.

With `COc1ccc(CCNC(=O)C(=O)NCC2CCCN2S(=O)(=O)c2cc(C)ccc2C)cc1` (stereo not drawn), the IC50 in test [1] was 34.1 µM (inactive).

Take `CCCCC1=CC2=CC(=O)C(C)(OC(=O)c3ccco3)C(=O)C2=CO1` (stereo not drawn): the EC50 in test [2] was 20.5 µM (active); in test [3], 16.2 µM (active).

Consider `C=CCSc1nnc(N2C(=O)C(O)=C(C(=O)c3ccco3)C2c2ccccc2F)s1` (stereo not drawn), for which the EC50 was 48.3 µM (active) in test [2] and 54.8 µM (active) in test [3].

`CN(C)S(=O)(=O)c1ccc2c(c1)nc(CCC(=O)NCc1ccc(Cl)cc1)n2C`: in test [4], the IC50 was 6.82 µM (not active).

`O=C1/C(=C/c2ccc(Br)cc2)Oc2cc(O)ccc21`: the EC50 in [2] is 7.71 µM (active); in test [3] it was 6.67 µM (active).

For `O=P(Nc1ccccc1)(Oc1ccccc1)Oc1ccccc1`, the IC50 in test [1] is > 79 µM (inactive).

In the case of `CCC(C)n1c(=N)c(C#N)cc2c(=O)n3cc(C)ccc3nc21` (stereo not drawn), the EC50 is > 300 µM (not active) in test [2] and 254 µM (inconclusive) in [3].

Turning to `CCc1cc(C(=O)Nc2ccc(OC)nc2)sc1C`, the EC50 in [2] was 11.8 µM (active); in test [3] it was 9.29 µM (active).

Consider `CC1(C)C(=O)OC(c2c(F)c(F)c(F)c(F)c2F)C2(CCCCC2)C1=O` (stereo not drawn), for which the IC50 in test [4] was 4.17 µM (not active).

For `CNC(=O)NC(=O)C(C)Oc1ccccc1F` (stereo not drawn), in [4], the IC50 was < 0.4 µM (not active).

`COc1ccc(OC)c(-c2cc(C(=O)O)c3cc4ccccc4cc3n2)c1`: in test [5], the IC50 is > 47.1 µM (inactive). Moreover, the EC50 in test [6] is > 53 µM (inactive). Moreover, in test [7], the AC50 was 3.16 µM (inconclusive).

With `O=C(Nc1ccc2c(c1)OCO2)c1cnn2c(C(F)(F)F)cc(-c3ccco3)nc12`, the IC50 in [1] was > 79 µM (inactive).

In the case of `Cc1cc2c3c(c1)C(C)CC(C)(C)N3C(=O)C2=O` (stereo not drawn), the EC50 in test [2] and in test [3] was > 300 µM (not active) each time.

In the case of `CCCc1cc(=O)oc2c(CNc3ccc(OCC)cc3)c(O)ccc12`, the IC50 in [1] is > 79 µM (inactive).

Take `Cc1ccc(S(=O)(=O)NNC(=S)NC(=O)c2ccc([N+](=O)[O-])cc2)cc1`: the EC50 in test [2] was 31.8 µM (active); in test [3], 21.1 µM (active).

As for `Oc1nc2cc3c(cc2cc1CN(Cc1nnnn1CC1CCCO1)C1CCCCC1)OCO3` (stereo not drawn), the IC50 in test [1] was 27.5 µM (active).

In the case of `CCN(CC)c1nc(-c2nnn[nH]2)nc(N(CC)CC)n1`, the EC50 in [2] and in [3] was > 300 µM (not active) in each case.

On to `Oc1ccccc1CN(Cc1ccco1)CC(O)COCc1ccc(Cl)cc1` (stereo not drawn), for which the IC50 in test [4] is recorded as 7.83 µM (not active).

Consider `CSCc1cc(N2CCOCC2)nc(SCc2ccc(Cl)cc2Cl)n1`, for which, in [4], the IC50 is given as 3.57 µM (not active).

Consider `O=C(CSc1ccc2nnc(-c3ccncc3)n2n1)Nc1nccs1`, for which the IC50 in test [4] is listed as > 50 µM (not active).

With `CC1CCN(Cc2cnc(Cl)s2)CC1`, the IC50 in test [4] is 1.78 µM (not active).

Consider `C=CCOc1c(CNc2cccc(C(=O)O)c2)cccc1OCC`, for which the IC50 in test [5] was > 47.1 µM (inactive). In addition, the EC50 in test [6] is > 53 µM (inactive).

Regarding `CC1(C)Cc2c(C#N)c(NCC3CCCO3)nc(-c3ccco3)c2CO1` (stereo not drawn), the IC50 in test [5] was > 47.1 µM (inactive). Moreover, in test [6], the EC50 was > 53 µM (inactive).

With `COCCn1c(SCc2nnc(-c3ccccc3)o2)nc2sc3c(c2c1=O)CCC3`, the IC50 in test [5] was > 47.1 µM (inactive). In addition, the EC50 in test [6] is > 53 µM (inactive).

As for `COc1cc(C#Cc2c(-c3ccccc3)n(C)c3ccccc23)cc(OC)c1`, the IC50 in test [5] is > 47.1 µM (inactive). Besides, the EC50 in test [6] was > 53 µM (inactive).

For the compound `COc1cccc(CN(C)C(=O)C(Cc2ccccc2)NC(=O)c2ccccc2)c1OC` (stereo not drawn), in test [1], the IC50 was 6.93 µM (active).

On to `O=C(NC1CCCCC1)C(c1ccc2ncccc2c1)N(Cc1cccs1)C(=O)c1cccs1` (stereo not drawn), for which, in test [1], the IC50 is > 79 µM (inactive).

For `CCCCN1C(=O)NC(=O)/C(=C\NNC(=O)c2ccncc2)C1=O`, the EC50 in test [2] and in [3] was > 300 µM (not active) each time.

With `COC(=O)/C=C1/SC(NNC(=O)c2ccc(Cl)cc2Cl)=NC1=O`, the IC50 in test [5] is > 47.1 µM (inactive). In test [6], the EC50 was > 53 µM (inactive).

Turning to `O=C(COc1ccccc1C(=O)c1cnn(-c2ccccc2)c1)Nc1ccc2ccccc2c1`, the EC50 in [8] is 5.67 µM (active); in test [9], 6.97 µM (active); in test [10], 7.44 µM (active); in test [6], > 53 µM (inactive). Further, the IC50 in test [5] was > 47.1 µM (inactive).

For `CC(C)CC(=O)Nc1ccc(C(=O)COC(=O)Cc2nnc(O)c3ccccc23)cc1`, the IC50 in test [1] is 18.4 µM (active).

As to `CC(C)CCNC(=O)NC(=O)CSc1nnc(-c2ccccc2Br)o1`, in test [4], the IC50 is reported as > 50 µM (not active).

Consider `COc1ccccc1Nc1ccc(S(=O)(=O)N2CCCCC2)cc1[N+](=O)[O-]`, for which, in [5], the IC50 was > 47.1 µM (inactive). Also, the EC50 in [6] is > 53 µM (inactive).

Take `CCOC(=O)c1c(NC(=O)COC(=O)Cc2nnc(O)c3ccccc23)sc(C(=O)NC)c1C`: the IC50 in test [1] was > 79 µM (inactive).

On to `Cc1ccccc1N1CCN(C2CCCN(C(=O)c3cn4c(C)cccc4n3)C2)CC1` (stereo not drawn), for which the IC50 in test [5] is > 47.1 µM (inactive). Moreover, in test [6], the EC50 was > 53 µM (inactive).

Turning to `COc1ccc(NS(=O)(=O)c2cc(NC(=O)Cc3nnc(O)c4ccccc34)ccc2OC)cc1`, in test [1], the IC50 was > 79 µM (inactive).

As for `CN(C)P(=O)(NC(=O)c1cccn1C)N(C)C`, the IC50 in test [5] was > 47.1 µM (inactive). For the same compound, in [6], the EC50 is > 53 µM (inactive).

Consider `C=CCO/C(O)=C1\C(C)=NC2(O)c3ccccc3C(=O)C12O` (stereo not drawn), for which the IC50 in test [5] was > 47.1 µM (inactive). For the same compound, in test [6], the EC50 was > 53 µM (inactive).

As for `COc1cc(/C=N/n2nnnc2Nc2ccccc2)cc(OC)c1OC`, the IC50 in test [1] was 12.4 µM (active).

For `Cc1ccc(NC(=O)COC(=O)c2cccnc2Cl)cc1S(=O)(=O)N1CCOCC1`, the IC50 in [5] is > 47.1 µM (inactive). The EC50 in test [6] is > 53 µM (inactive).

With `CN1CCN(/C=N/C2=C(C#N)C(c3ccccc3)C3=C(CC(C)(C)CC3=O)O2)CC1` (stereo not drawn), the EC50 in test [2] and in [3] was > 300 µM (not active) throughout. The AC50 in [7] was 14.1 µM (inconclusive).
